Data from article PMC9781010, “Polyphenolic Compounds Isolated from Marine Algae Attenuate the Replication of SARS-CoV-2 in the Host Cell through a Multi-Target Approach of 3CL^pro and PL^pro” (Marine Drugs, 2022).
Where two headings read alike, the source gives them in different places.

Columns and labels:
SARS-CoV-2 = assay: Cytopathic effect (CPE) reduction assay; assay type: cell-based; conditions: for CPE reduction / inhibitory activity against SARS-CoV-2 (in words): no concentration stated
Description: The CPE reduction assay was performed according to the previously reported method. Briefly, the cells were seeded with 5 × 10^4 cells/well in a 96-well plate and incubated at 37 °C for 48 h. A total of 100 µL of the virus was treated in each well using DMEM media that was FBS free and 1% antibiotic to infect a 0.01 multiplicity of infection (MOI) and incubated for an additional 1 h at 37 °C. Subsequently, the infected cells were treated with samples after removing the virus and 72 h of incubation was performed, and the MTT solution was added and allowed to stand for a 4 h incubation period. The formazan crystals were dissolved and the absorbance was measured.

PL^pro (SARS-CoV-2) = PL^pro (SARS-CoV-2) (Severe acute respiratory syndrome coronavirus 2, UniProt P0DTD1); assay: biochemical; assay type: biochemical; conditions: for Mode of inhibition (Lineweaver–Burk plot): PL^pro, Vmax unchanged, Km increased with inhibitor concentration
PL^pro [1] = molecular target: PL^pro (UniProt P0DTD1); assay: Cell-based PLpro cleavage inhibition assay (dual luciferase, Vero-E6 cells); set-up: species or system SARS-CoV-2
3CL^pro (SARS-CoV-2) = 3CL^pro (SARS-CoV-2) (Severe acute respiratory syndrome coronavirus 2, UniProt P0DTD1); assay: biochemical; assay type: biochemical; conditions: for Mode of inhibition (Lineweaver–Burk plot): 3CL^pro, Vmax unchanged, Km increased with inhibitor concentration
3CL^pro [2] = molecular target: 3CL^pro (UniProt P0DTD1); assay: Cell-based 3CLpro cleavage inhibition assay (dual luciferase, Vero-E6 cells); set-up: species or system SARS-CoV-2
PL^pro [3] = molecular target: PL^pro (UniProt P08659+P0DTD1); assay: Cell-based PLpro cleavage inhibition assay (dual luciferase, Vero-E6 cells); set-up: species or system SARS-CoV-2; conditions: cell-based
3CL^pro [4] = molecular target: 3CL^pro (UniProt P08659+P0DTD1); assay: Cell-based 3CLpro cleavage inhibition assay (dual luciferase, Vero-E6 cells); set-up: species or system SARS-CoV-2; conditions: cell-based
[5] = at 6.25 µM, compared to Dieckol
[6] = cell-free cleavage of PL^pro, fluorogenic substrate, read-out: IC50 Value
[7] = cell-free cleavage of 3CL^pro, fluorogenic substrate, read-out: IC50 Value

Sequence of PL^pro (UniProt P0DTD1) (P08659 whole entry, looked up, other chains not shown): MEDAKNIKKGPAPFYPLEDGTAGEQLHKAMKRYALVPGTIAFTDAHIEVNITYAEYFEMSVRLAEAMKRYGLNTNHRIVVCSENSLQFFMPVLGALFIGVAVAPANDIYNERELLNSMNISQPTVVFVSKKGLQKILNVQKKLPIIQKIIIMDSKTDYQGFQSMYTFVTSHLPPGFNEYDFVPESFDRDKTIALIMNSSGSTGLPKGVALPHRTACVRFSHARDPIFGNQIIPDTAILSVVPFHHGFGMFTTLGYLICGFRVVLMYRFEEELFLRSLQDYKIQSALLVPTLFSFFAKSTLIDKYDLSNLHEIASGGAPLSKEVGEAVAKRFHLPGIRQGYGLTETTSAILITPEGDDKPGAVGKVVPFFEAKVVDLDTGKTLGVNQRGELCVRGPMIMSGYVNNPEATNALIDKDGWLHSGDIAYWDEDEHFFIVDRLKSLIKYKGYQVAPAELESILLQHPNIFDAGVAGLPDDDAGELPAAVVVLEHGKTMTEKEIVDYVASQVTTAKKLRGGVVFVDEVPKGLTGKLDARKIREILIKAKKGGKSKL
Sequence of 3CL^pro (UniProt P0DTD1) (P08659 whole entry, looked up, other chains not shown): as above
Sequence of 3CL^pro (UniProt P08659+P0DTD1) (P08659 whole entry, looked up, other chains not shown): as above
Sequence of PL^pro (UniProt P08659+P0DTD1) (P08659 whole entry, looked up, other chains not shown): as above

| SMILES | CPE reduction / inhibitory activity against SARS-CoV-2 (in words) (SARS-CoV-2) | IC50 (PL^pro (SARS-CoV-2)) | Mode of inhibition (Lineweaver–Burk plot) (PL^pro (SARS-CoV-2)) | Cell-based inhibitory activity against proteolytic activity (in words) (PL^pro [1]) | IC50 (3CL^pro (SARS-CoV-2)) | Mode of inhibition (Lineweaver–Burk plot) (3CL^pro (SARS-CoV-2)) | Cell-based inhibitory activity against proteolytic activity (in words) (3CL^pro [2]) | CPE reduction activity (SARS-CoV-2; [5]) | CPE reduction activity (SARS-CoV-2; at 25 µM) | IC50 (PL^pro (SARS-CoV-2); [6]) | IC50 (3CL^pro (SARS-CoV-2); [7]) | Concentrations with significant and dose-dependent inhibitory activity (PL^pro [3]) | Concentrations with significant and dose-dependent inhibitory activity (3CL^pro [4]) |
| --- | --- | --- | --- | --- | --- | --- | --- | --- | --- | --- | --- | --- | --- |
| Oc1cc(O)cc(Oc2c(O)cc(O)c3c2Oc2c(O)cc(Oc4c(O)cc(Oc5c(O)cc(O)c6c5Oc5c(O)cc(O)cc5O6)cc4O)cc2O3)c1 [Dieckol] | dose-dependent inhibitory activity | 19.74 ± 0.09 µM | competitive inhibitors | significant and dose-dependent inhibitory activities | 5.49 ± 0.092 µM | competitive inhibitors | significant and dose-dependent inhibitory activities |  |  |  |  |  |  |
| Oc1cc(O)cc(Oc2c(O)cc3c(c2O)Oc2cc(Oc4c(O)cc(O)cc4O)c(O)c(O)c2O3)c1 [Diphlorethohydroxycarmalol] | greater activities than IPA |  | competitive inhibitors | significant and dose-dependent inhibitory activities |  | competitive inhibitors | significant and dose-dependent inhibitory activities | great CPE reduction activity | greatest CPE reduction activity | 6.637 ± 0.056 µM | 3.12 ± 0.066 µM |  |  |
| Oc1cc(O)c(Oc2cc(O)cc(O)c2-c2c(O)cc(O)cc2Oc2c(O)cc(O)cc2Oc2c(O)cc(O)c3c2Oc2c(O)cc(O)cc2O3)c(O)c1 [Eckmaxol] | greater activities than IPA |  | competitive inhibitors | significant and dose-dependent inhibitory activities |  | competitive inhibitors | significant and dose-dependent inhibitory activities | great CPE reduction activity |  | 19.83 ± 0.121 µM | 1.89 ± 0.078 µM |  |  |
| Oc1cc(O)cc(Oc2cc(O)c(Oc3c(O)cc(O)cc3Oc3cc(O)c(Oc4cc(O)cc(O)c4Oc4cc(O)cc(O)c4Oc4cc(O)cc(O)c4Oc4cc(O)c(Oc5c(O)cc(O)cc5Oc5c(O)cc(Oc6c(O)cc(Oc7c(O)cc(Oc8c(O)cc(Oc9c(O)cc(Oc%10c(O)cc(Oc%11c(O)cc(O)cc%11O)cc%10O)cc9O)cc8O)cc7O)cc6O)cc5O)c(O)c4)c(O)c3)c(O)c2)c1 [Ishophloroglucin A] |  |  | competitive inhibitors | greatest inhibitory activity |  | competitive inhibitors | greatest inhibitory activity | great CPE reduction activity |  | 1.405 ± 0.007 µM | 0.481 ± 0.031 µM | 12.59 to 75.52 µM | 6.29 to 75.52 µM |
